SMILES strings stand for the structures.

Results on two compounds are retold here after patent publication US20130172407A1, “Inhibition of Cancer Cell Proliferation Using Oleoylethanolamide” (China Medical University, priority 2011, published 2013).

Common to all, as to type: cell-based, Human
The subject of one assay is AGS cells. The experiment in a line: MTT cell viability analysis, AGS cells. To be noted: 24 hours, OEA 50, 100, 200 μM and lycopene 2, 5 μM compared to control group, synergy groups (200 μM OEA + 2 or 5 μM lycopene) compared to OEA group 3 and lycopene groups 1 and 2, FIG. 8. Here is the method: (§1) HT-29 cells were cultured in a 75-cm^2 flask containing McCoy's medium (Invitrogen Inc., Carlsbad, Calif., USA) supplemented with 10% Fetal Bovine Serum (FBS), 2 mM glutamine and 1.5 g/L sodium bicarbonate. The remaining cells were cultured in a 75-cm^2 flask containing RPMI 1640 medium (Hyclone, Grand Island, N.Y., USA) supplemented with 10% Fetal Bovine Serum (FBS), 2 mM glutamine and 1.5 g/L sodium bicarbonate. These cells were cultured in an incubator with culture conditions set at 37° C. and 5% CO2. […]
(§2) • {3-[4,5-Dimethylthiazol-2-yl]-2,5-diphenyltetrazolium bromide} (MTT, 0.5 mg/mL, 200 μL) was added to the cell culture of each group, followed by incubation in an incubator (37° C., 5% CO2) for 2 hours. […] The absorbance at 570 nm (OD570) for each well was detected using a microplate reader (Tecan Inc., Mannedorf, Switzerland).
(§3) Cell viability percentage (%) was calculated by substituting the detected absorbance (OD570) to the following formula (1):
(§4) A=(B/C)×100 Formula (1): • wherein: • A=cell viability percentage (%) • B=the detected OD570 absorbance of each group • C=the detected OD570 absorbance of control group

Another assay relates to SW-480 cells. The experiment in a line: MTT cell viability analysis, SW-480 cells. To be noted: 24 hours, OEA 50, 100, 200 μM and lycopene 2, 5 μM compared to control group, synergy groups (200 μM OEA + 2 or 5 μM lycopene) compared to OEA group 3 and lycopene groups 1 and 2, FIG. 3. Here is the method:
as §1, §2, §3, §4

The subject of a further assay is Huh-7 cells. In words: MTT cell viability analysis, Huh-7 cells. To be noted: 24 hours, OEA 50, 100, 200 μM and lycopene 2, 5 μM compared to control group, synergy groups (200 μM OEA + 2 or 5 μM lycopene) compared to OEA group 3 and lycopene groups 1 and 2, FIG. 6. As for the experimental part:
as §1, §2, §3, §4

In assay [1] the test system is HT-29 cells. The experiment in a line: FITC Annexin V / PI flow cytometry, cell death (apoptosis). As to conditions: FITC Annexin V and PI positive, OEA 200 μM and lycopene 5 μM compared to control group, synergy groups compared to OEA group 3 and lycopene group 2, FIG. 11. As for the experimental part: In order to further investigate the usefulness of OEA and its combination with lycopene in inducing cell apoptosis of human colorectal cancer cell line HT-29, HT-29 cell cultures of control group, OEA group 3, lycopene groups 1 and 2 and synergy groups 1 and 2 obtained according to the above Item B in Example 2 were used for subsequent experiments.
First, the cell culture of each group was collected and washed with cold PBS twice followed by centrifugation at 300 g for 5 minutes. The supernatant was removed and 1× Annexin V Binding Buffer (BD Pharmingen™) was added to sufficiently re-suspend the cell pellet thereby obtaining a cell suspension having a cell concentration of 1×10^5 cells/mL. […]
Then, the stained cells were analyzed using BD FACSAria™ flow cytometry, wherein cells stained with FITC Annexin V and PI, i.e., FITC Annexin V positive and PI positive, represent cells that were induced with apoptosis and died, while cells that could not be stained with FITC Annexin V and PI, i.e., FITC Annexin V negative and PI negative, represent viable cells. The number of cells stained with FITC Annexin V and PI was calculated using BD FACSDiVa™ software.
The cell death percentage (%) of each group was calculated by substituting the detected cell number to the following formula (2): […]
In general terms: In flow cytometry, cells or beads pass a laser one at a time.

The next assay concerns A549 cells. In words: MTT cell viability analysis, A549 cells. As to conditions: 24 hours, OEA 50, 100, 200 μM and lycopene 2, 5 μM compared to control group, synergy groups (200 μM OEA + 2 or 5 μM lycopene) compared to OEA group 3 and lycopene groups 1 and 2, FIG. 4. Here is the method:
as §1, §2, §3, §4

The next assay has as its system HCT 116 cells. In words: MTT cell viability analysis, HCT 116 cells. To be noted: 24 hours, OEA 50, 100, 200 μM and lycopene 2, 5 μM compared to control group, synergy groups (200 μM OEA + 2 or 5 μM lycopene) compared to OEA group 3 and lycopene groups 1 and 2, FIG. 2. As for the experimental part:
as §1, §2, §3, §4

The next assay has as its system MDA-MB-231 cells. The experiment in a line: MTT cell viability analysis, MDA-MB-231 cells. As to conditions: 24 hours, OEA 50, 100, 200 μM and lycopene 2, 5 μM compared to control group, synergy groups (200 μM OEA + 2 or 5 μM lycopene) compared to OEA group 3 and lycopene groups 1 and 2, FIG. 5. Here is the method: as §1, §2, §3, §4
The next assay has as its system p-NF-κB p65. The experiment in a line: Western Blotting analysis of nuclear protein, p-NF-κB p65 expression in HT-29 cells. To be noted: HT-29 nuclear protein; OEA 200 μM, lycopene 2 and 5 μM compared to control group; synergy groups compared to OEA group 3 and lycopene groups 1 and 2; FIG. 10. As for the experimental part: (§5) In order to detect the protein expression of HT-29 cells, the HT-29 cell culture treated with different solutions for use in the instant experiment was obtained substantially according to “B. Treatment of various cancer cell lines with OEA solutions, lycopene solutions and combined solutions” in the above Example 2. The difference was that the cells of each group were cultured in a culture dish having a diameter of 10 cm. Experimental groups were added with different solutions according to those shown in Table 3 and the amount added was 10 mL.
(§6) Then, the HT-29 cell cultures of the control group, OEA group 3, lycopene groups 1 and 2 and synergy groups 1 and 2 were washed with PBS twice followed by adding 75 μL lysis buffer (containing PBS, 1% Ipegal CA-630 (Sigma, St. Louis, Mo.), 0.5% sodium deoxycholate, 0.1% SDS, 100 μM phenylmethylsulfonyl fluoride, 20 μg/mL aprotinin, 1 mM PMSF and 3 μM sodium orthovanadate) and uniformly mixing. The resultant cell mixtures were subjected to nuclear protein extraction using NE-PER® Nuclear and Cytoplasmic Extraction Reagents (Thermo Scientific, Cat. No. 78833) according to the manufacturer's operation guide, thereby obtaining nuclear protein samples. […]
A general note: Immunoblotting shows a protein as a band on a membrane.

Assay [2] concerns HT-29 cells. In words: MTT cell viability analysis, HT-29 cells. To be noted: 24 hours, OEA 50, 100, 200 μM and lycopene 2, 5 μM compared to control group, synergy groups (200 μM OEA + 2 or 5 μM lycopene) compared to OEA group 3 and lycopene groups 1 and 2, FIG. 1. Here is the method: as §1, §2, §3, §4
The test system of a further assay is cyclin D1. The experiment in a line: Western Blotting analysis of nuclear protein, cyclin D1 expression in HT-29 cells. To be noted: HT-29 nuclear protein; OEA 200 μM, lycopene 2 and 5 μM compared to control group; synergy groups compared to OEA group 3 and lycopene groups 1 and 2; FIG. 10. As for the experimental part:
as §5, §6

The subject of the next assay is CAL 27 cells. In words: MTT cell viability analysis, CAL 27 cells. As to conditions: 24 hours, OEA 50, 100, 200 μM and lycopene 2, 5 μM compared to control group, synergy groups (200 μM OEA + 2 or 5 μM lycopene) compared to OEA group 3 and lycopene groups 1 and 2, FIG. 7. As for the experimental part:
as §1, §2, §3, §4

For assay [3], the system named is HT-29 cells. In words: Flow cytometry cell cycle analysis (PI staining, Sub-G1 phase). To be noted: 24 hours, OEA 50, 100, 200 μM, lycopene 2, 5 μM, synergy groups (200 μM OEA + 2 or 5 μM lycopene) compared to OEA groups 1-3 and lycopene groups 1 and 2, FIG. 9. Here is the method:
In order to understand the effect of OEA and its combination with lycopene on the cell cycle and proliferation of human colorectal cancer cell line HT-29, HT-29 cell culture treated with different solutions obtained from Item B of Example 2 was used for the following experiments.
Each group of the HT-29 cell culture obtained from Item B of Example 2 was washed with PBS twice followed by fixing the cells with 70% (w/v) cold ethanol for 1 hour. Then, the obtained fixed cells were washed with cold PBS followed by centrifugation at 300 g for 5 minutes. […]
Subsequently, the obtained dyed cells were subjected to cell cycle analysis using BD FACSCanto™ flow cytometer (BD Biosciences, Cat. No. 338960), and the DNA content of 1×10^4 cells was analyzed in each analysis. The cells would emit fluorescence when excited by laser beam of argon ion at 488 nm. Cell cycle profile was analyzed from DNA content histograms using BD FACSDiVa™ software (Becton Dickinson, Cat. No. 643629). […] The percentage of the cells in Sub-G1 phase was analyzed using ModFit LT software.
The obtained experimental data was analyzed according to the method described in “Statistical Analysis” in the section of “General experimental procedure”.

As to `CCCCCCCC/C=C\CCCCCCCC(=O)NCCO` [OEA, oleoylethanolamide], the cell viability percentage result in the assay with AGS cells, in the assay with SW-480 cells, with Huh-7 cells, in the assay with A549 cells, with HCT 116 cells and in the assay with MDA-MB-231 cells was “reduced” throughout. Besides, the cell viability percentage entry with HT-29 cells [2] and with CAL 27 cells was “reduced” in each case. In the assay on HT-29 cells [1], the cell death percentage result was “elevated”. Further, in the assay on p-NF-κB p65, the “amount of p-NF-κB p65 expression” value is “reduced”. In addition, the “amount of cyclin D1 expression” value in the assay with cyclin D1 was “reduced”. The “percentage of HT-29 cells in Sub-G1 phase” value in the assay on HT-29 cells [3] is “promote HT-29 cells to be in Sub-G1 phase”.

As to `CC(C)=CCC/C(C)=C/C=C/C(C)=C/C=C/C(C)=C/C=C/C=C(C)/C=C/C=C(C)/C=C/C=C(\C)CCC=C(C)C` [lycopene], the cell viability percentage entry with AGS cells, in the assay with SW-480 cells, in the assay on Huh-7 cells, in the assay with A549 cells, in the assay on HCT 116 cells and in the assay on MDA-MB-231 cells was “reduced” each time. Also, the cell viability percentage result in the assay with HT-29 cells [2] and in the assay on CAL 27 cells was “reduced” each time. For the same compound, the cell death percentage entry in the assay on HT-29 cells [1] was “elevated”. In the assay on p-NF-κB p65, the “amount of p-NF-κB p65 expression” value was “reduced”. In the assay with cyclin D1, the “amount of cyclin D1 expression” value is “reduced”. Besides, the “percentage of HT-29 cells in Sub-G1 phase” value in the assay on HT-29 cells [3] is on record as “promote HT-29 cells to be in Sub-G1 phase”.
